In patent US20260256925A1, “INDAZOLE DERIVATIVES AS ESTROGEN RECEPTOR DEGRADERS” (REGENTS OF THE UNIVERSITY OF MICHIGAN, priority 2022, published 2026):

Experiments:
ER [1] = target: T1, ER (Homo sapiens, UniProt P03372); assay: In-cell Western (ICW) ER degradation assay in T47D cells; type: cell-based; conditions: T47D cells, 16 hrs; for Dmax: T47D, read-out: ER T47D ICW Dmax (%)
T1 construct: endogenous in cells; probably T47D or MCF-7
T1 sequence (P03372 1-595): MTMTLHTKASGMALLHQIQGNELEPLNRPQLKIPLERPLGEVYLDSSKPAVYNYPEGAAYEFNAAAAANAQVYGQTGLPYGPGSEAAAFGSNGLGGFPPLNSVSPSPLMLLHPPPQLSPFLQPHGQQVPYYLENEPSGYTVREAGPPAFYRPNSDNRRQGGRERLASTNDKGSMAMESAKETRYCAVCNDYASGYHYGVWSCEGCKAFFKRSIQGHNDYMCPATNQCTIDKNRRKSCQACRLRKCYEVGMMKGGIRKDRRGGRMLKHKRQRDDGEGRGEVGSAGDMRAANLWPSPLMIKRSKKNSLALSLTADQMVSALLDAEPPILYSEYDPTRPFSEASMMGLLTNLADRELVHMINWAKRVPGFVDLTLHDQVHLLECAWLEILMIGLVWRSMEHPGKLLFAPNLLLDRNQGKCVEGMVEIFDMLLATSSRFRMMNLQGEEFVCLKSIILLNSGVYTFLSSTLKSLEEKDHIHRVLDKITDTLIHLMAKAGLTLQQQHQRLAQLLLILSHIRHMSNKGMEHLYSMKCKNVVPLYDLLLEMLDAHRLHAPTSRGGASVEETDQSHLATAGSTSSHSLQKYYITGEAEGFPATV
Procedure: (§1) ERa degradative activity of compounds can be assessed in MCF-7 and T47D Cells. MCF-7 and T47D cell are seeded and are subsequently treated with the compounds at certain concentrations (e.g., 0.02 to 300 nM). DMSO can be used as vehicle control. Cells are fixed and are blocked with Intercept (PBS) Blocking Buffer (e.g., Li—COR, Odyssey Blocking Buffer), and are stained with ER (e.g., 1:500, Cell signaling) primary antibody for overnight at cold room. Secondary Antibody (e.g., IRDye 800CW Goat anti-Rabbit IgG) and CellTag 700 Stain are added in Intercept (PBS) Blocking Buffer. Finally, cell plate is placed in incubator to dry. Image and signal are captured on Odyssey® DLx Imaging System.
(§2) In-cell Western (ICW) assays in MCF-7 and T47D cell lines.
(§3) Procedures for ICW assays
(§4) In vitro Assay: MCF-7 and T47D ICW assay
(§5) Day 3: After 16 hrs of compounds treatment, cells were fixed by 4% PFA and permeabilized with elution buffer (0.1% Triton X-100 in 1% PBS Solution). Subsequently, cells were blocked with Intercept (PBS) Blocking Buffer (Li—COR, Odyssey Blocking Buffer), and were stained with ER (1:500, Cell signaling) primary antibody for overnight at cold room.
(§6) Day 4: Remove the buffer, add IRDye 800CW Goat anti-Rabbit IgG Secondary Antibody (1:2000) and CellTag 700 Stain (1:500) in Intercept (PBS) Blocking Buffer. Finally, cell plate is placed in incubator to dry. Image and signal were captured on Odyssey® DLx Imaging System.

ER [2] = target: T1, ER; assay: In-cell Western (ICW) ER degradation assay in MCF-7 cells; type: cell-based; conditions: 16 hrs; for Dmax: MCF7, MCF-7 cells, read-out: ER MCF7 ICW Dmax (%); for DC50: MCF-7 cells, read-out: ER MCF7 ICW DC50
Procedure: as §1, §2, §3, §4, §5, §6

CRBN/DDB1 = target: T2, CRBN/DDB1 (Homo sapiens, UniProt Q96SW2); type: binding; conditions: HTRF, Cy5-labeled Thalidomide probe
T2 construct: purchased Wuxi RP210521GA
Procedure: The binding potency was determined using HTRF assay technology (Perkin Elmer). Compounds were serially diluted in DMSO and 0.2 μL volume was transferred to white 384-well plate.

ERα_LBD (GST) = target: T3, ERα_LBD (GST) (Homo sapiens, UniProt P03372); assay: IC50 measurements for binding to ERα_LBD (GST), LanthaScreen TR-FRET ERα competitive binding assay; conditions: Fluormone ES2 Green tracer, 60 min, read-out: ERα HTRF IC50
T3 construct: ERα_LBD (GST) protein: 4 nM; purchased ThermoFisher A15887
T3 sequence (P03372 311-547 limits assumed): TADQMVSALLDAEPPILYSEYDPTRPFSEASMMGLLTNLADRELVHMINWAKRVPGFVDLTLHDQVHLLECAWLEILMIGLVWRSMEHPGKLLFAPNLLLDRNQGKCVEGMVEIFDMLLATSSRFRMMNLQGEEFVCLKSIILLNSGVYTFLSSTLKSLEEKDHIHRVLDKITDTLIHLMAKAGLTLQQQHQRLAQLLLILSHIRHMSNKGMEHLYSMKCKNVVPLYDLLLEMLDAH
Procedure: In vitro Assay: IC50 Measurements for binding to ERα_LBD (GST)·
Final assay conditions: • 1. ERα_LBD (GST) protein: 4 nM • 2. Tb Anti-GST: 2 nM • 3. Fluormone ES2 Green tracer: 3 nM • 4. Incubation time: 60 min • 5. DMSO: 1% • 6. Assay buffer: Adding 1M DTT to Nuclear receptor Buffer K for final 5 mM DTT. • 7. ZPE: 1% DMSO • 8. HPE: 1 μM ARV_471 • 9. LanthaScreen® TR-FRET ERα Competitive Binding Assay (ThermoFisher, #A^15887)
100× Compound preparation: • 1) Cherry pick 2 μL 10 mM compound stock to column 1 of a 384 intermediate plate • 2) Add 18 μL DMSO to column 1 to dilute compound to 1 mM. • 3) Transfer 10 μL 1 mM compound to column 1 of a LDV plate. • 2) Add 6 μl DMSO to column 2-10 of the LDV plate. • 3) Compounds undergo 3-fold serial dilution (3 μL+6 μL) in DMSO. • 4) Transfer 120 nL compound solution to assay plate.
Prepare complete nuclear receptor buffer K by adding 1 M DTT to nuclear receptor buffer K for a final concentration of 5 mM DTT. Complete nuclear receptor buffer K must be prepared fresh daily. Prepare 2× protein solution using complete nuclear receptor buffer K containing 8 nM ERα_LBD (GST) and 4 nM Tb Anti-GST. Then, prepare 2× Fluormone ES2 Green tracer (6 nM) using complete nuclear receptor buffer K. Add 6 μL 2× Fluormone ES2 green tracer into a compound plate (PerkinElmer 6008289) by dragonfly with one-tips-addition. Subsequently, add 6 μL 2× protein solution into the plate. Briefly and gently mix the 384-well plate on a plate shaker and incubate at room temperature protected from light for 60 min. The plate is sealed with a cover to minimize evaporation. Read the plate at wavelengths of 520 nm and 495 nm. Calculate the TR-FRET ratio by dividing the emission signal at 520 nm by the emission signal at 495 nm. Generate a binding curve by plotting the emission ratio vs. the log [ligand]. To determine the IC50 value, fit the data using XL-fit for a sigmoidal dose-response.

T2 sequence (Q96SW2 whole entry): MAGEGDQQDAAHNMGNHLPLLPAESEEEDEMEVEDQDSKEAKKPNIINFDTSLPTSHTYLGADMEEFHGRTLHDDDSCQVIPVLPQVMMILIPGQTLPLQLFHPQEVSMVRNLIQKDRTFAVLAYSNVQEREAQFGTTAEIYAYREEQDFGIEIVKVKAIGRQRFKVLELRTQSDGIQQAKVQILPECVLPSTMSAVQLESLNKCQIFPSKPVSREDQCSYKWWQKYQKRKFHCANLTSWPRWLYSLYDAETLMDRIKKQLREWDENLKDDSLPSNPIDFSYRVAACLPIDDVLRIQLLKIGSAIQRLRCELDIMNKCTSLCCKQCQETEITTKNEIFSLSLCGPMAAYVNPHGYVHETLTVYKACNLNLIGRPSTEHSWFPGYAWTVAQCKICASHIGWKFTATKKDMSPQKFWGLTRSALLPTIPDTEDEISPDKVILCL
T2 sequence (Q16531 whole entry partner): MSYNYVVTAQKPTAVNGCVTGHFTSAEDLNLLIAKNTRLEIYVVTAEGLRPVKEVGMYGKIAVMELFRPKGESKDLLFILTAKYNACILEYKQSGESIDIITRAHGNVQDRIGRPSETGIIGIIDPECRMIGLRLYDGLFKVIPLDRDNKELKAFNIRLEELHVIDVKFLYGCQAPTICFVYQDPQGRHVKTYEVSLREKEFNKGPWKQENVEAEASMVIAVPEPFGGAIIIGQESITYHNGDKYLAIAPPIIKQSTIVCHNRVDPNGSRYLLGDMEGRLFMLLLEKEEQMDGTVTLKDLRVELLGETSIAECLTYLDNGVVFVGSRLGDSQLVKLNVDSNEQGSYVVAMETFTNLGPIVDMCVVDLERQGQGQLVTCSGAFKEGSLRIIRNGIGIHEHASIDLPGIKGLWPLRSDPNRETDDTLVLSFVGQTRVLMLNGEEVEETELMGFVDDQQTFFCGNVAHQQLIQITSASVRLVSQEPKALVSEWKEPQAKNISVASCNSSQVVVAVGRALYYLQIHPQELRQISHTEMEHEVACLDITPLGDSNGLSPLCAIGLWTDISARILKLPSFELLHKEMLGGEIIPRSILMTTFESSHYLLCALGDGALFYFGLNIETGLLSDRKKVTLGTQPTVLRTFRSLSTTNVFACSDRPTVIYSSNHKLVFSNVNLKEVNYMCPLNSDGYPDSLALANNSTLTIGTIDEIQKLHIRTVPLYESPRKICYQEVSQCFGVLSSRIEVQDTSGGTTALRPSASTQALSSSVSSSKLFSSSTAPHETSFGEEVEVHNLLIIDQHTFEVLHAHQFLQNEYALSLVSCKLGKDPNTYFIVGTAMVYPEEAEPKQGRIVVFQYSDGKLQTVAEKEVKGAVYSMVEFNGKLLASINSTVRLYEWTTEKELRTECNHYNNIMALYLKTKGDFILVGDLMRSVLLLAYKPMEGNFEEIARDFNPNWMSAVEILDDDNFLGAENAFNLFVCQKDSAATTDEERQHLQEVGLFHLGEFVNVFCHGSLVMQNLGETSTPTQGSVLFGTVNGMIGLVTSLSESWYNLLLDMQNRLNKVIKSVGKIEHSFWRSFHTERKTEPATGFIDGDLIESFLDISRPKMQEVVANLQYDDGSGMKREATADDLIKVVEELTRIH

Structure (SMILES)	DC50 (ER [1]) [nM]	Dmax (ER [1]) [%]	Dmax (ER [2]) [%]	DC50 (ER [2]) [nM]	IC50 (CRBN/DDB1) [nM]	IC50 (ERα_LBD (GST)) [nM]
C[C@H]1Cc2c(ccc3[nH]ncc23)[C@H](c2ccc(N3CCC4(CC3)CC(CN3CCN(c5ccc(C(=O)NC6CCC(=O)NC6=O)nc5)CC3)C4)cn2)N1CC(F)(F)F (stereo in doubt) [Compound A9, N-(2,6-dioxopiperidin-3-yl)-5-(4-((7-(6-((6R,8S)-8-methyl-7-(2,2,2-trifluoroethyl)-6,7,8,9-tetrahydro-3H-pyrazolo[4,3-f]isoquinolin-6-yl)pyridin-3-yl)-7-azaspiro[3.5]nonan-2-yl)methyl)piperazin-1-yl)picolinamide]	< 1	50 to 75	50 to 75	< 1	50 to 500	
C[C@H]1Cc2c(ccc3[nH]ncc23)[C@@H](c2ccc(N3CCC(CN4CCN5c6cc7c(cc6OC[C@H]5C4)C(=O)N([C@@H]4CCC(=O)NC4=O)C7)CC3)nc2)N1CC(F)(F)F (stereo in doubt) [Compound A20, (R)-3-((R)-3-((1-(5-((6S,8S)-8-methyl-7-(2,2,2-trifluoroethyl)-6,7,8,9-tetrahydro-3H-pyrazolo[4,3-f]isoquinolin-6-yl)pyridin-2-yl)piperidin-4-yl)methyl)-8-oxo-1,2,3,4,4a,5,8,10-octahydro-9H-pyrazino[1′,2′:4,5][1,4]oxazino[2,3-f]isoindol-9-yl)piperidine-2,6-dione]	10 to 100	50 to 75	25 to 50	10 to 100	< 50	
C[C@@H]1Cc2c(ccc3[nH]ncc23)[C@@H](c2ccc(N3CC4(CCC(CN5CCN6c7ccc8c(c7OC[C@H]6C5)CN([C@H]5CCC(=O)NC5=O)C8=O)CC4)C3)cn2)N1CC1(F)CC1 [Compound A11, (S)-3-((R)-7-((2-(6-((6S,8R)-7-((1-fluorocyclopropyl)methyl)-8-methyl-6,7,8,9-tetrahydro-3H-pyrazolo[4,3-f]isoquinolin-6-yl)pyridin-3-yl)-2-azaspiro[3.5]nonan-7-yl)methyl)-1-oxo-1,3,5,5a,6,7,8,9-octahydro-2H-pyrazino[1′,2′: 4,5][1,4]oxazino[2,3-e]isoindol-2-yl)piperidine-2,6-dione]	< 1	> 75	> 75	< 1		≥ 10
C[C@H]1Cc2c(ccc3[nH]ncc23)[C@H](c2ccc(N3CCC4(CC3)CC(CN3CCN5c6cc7c(cc6OC[C@@H]5C3)C(=O)N([C@@H]3CCC(=O)NC3=O)C7)C4)cn2)N1CC1(F)CC1 (stereo in doubt) [Compound A13, (R)-3-((S)-3-((7-(6-((6R,8S)-7-((1-fluorocyclopropyl)methyl)-8-methyl-6,7,8,9-tetrahydro-3H-pyrazolo[4,3-f]isoquinolin-6-yl)pyridin-3-yl)-7-azaspiro[3.5]nonan-2-yl)methyl)-8-oxo-1,2,3,4,4a,5,8,10-octahydro-9H-pyrazino[1′,2′:4,5][1,4]oxazino[2,3-f]isoindol-9-yl)piperidine-2,6-dione]	< 1	50 to 75	25 to 50	< 1	< 50	
C[C@H]1Cc2c(ccc3[nH]ncc23)[C@H](c2ccc(N3CCC4(CC3)CC(CN3CCC(c5ccc(NC6CCC(=O)NC6=O)cc5)CC3)C4)cn2)N1CC(F)(F)F (stereo in doubt) [Compound A10, 3-((4-(1-((7-(6-((6R,8S)-8-methyl-7-(2,2,2-trifluoroethyl)-6,7,8,9-tetrahydro-3H-pyrazolo[4,3-f]isoquinolin-6-yl)pyridin-3-yl)-7-azaspiro[3.5]nonan-2-yl)methyl)piperidin-4-yl)phenyl)amino)piperidine-2,6-dione]	< 1	50 to 75	50 to 75	< 1	50 to 500	
C[C@@H]1Cc2c(ccc3[nH]ncc23)[C@@H](c2c(F)cc(N3CCC(CN4CCN5c6ccc7c(c6OC[C@@H]5C4)CN(C4CCC(=O)NC4=O)C7=O)CC3)cc2F)N1CC(F)F (stereo partly drawn) [Compound A2, 3-((S)-7-((1-(4-((6S,8R)-7-(2,2-difluoroethyl)-8-methyl-6,7,8,9-tetrahydro-3H-pyrazolo[4,3-f]isoquinolin-6-yl)-3,5-difluorophenyl)piperidin-4-yl)methyl)-1-oxo-1,3,5,5a,6,7,8,9-octahydro-2H-pyrazino[1′,2′:4,5][1,4]oxazino[2,3-e]isoindol-2-yl)piperidine-2,6-dione]	< 1	50 to 75	50 to 75	< 1	50 to 500	
C[C@H]1Cc2c(ccc3[nH]ncc23)[C@@H](c2ccc(N3CC4(CCC(CN5CCN6c7ccc8c(c7OC[C@@H]6C5)CN([C@@H]5CCC(=O)NC5=O)C8=O)CC4)C3)nc2)N1CC(F)(F)F (stereo in doubt) [Compound A18, (R)-3-((S)-7-((2-(5-((6S,8S)-8-methyl-7-(2,2,2-trifluoroethyl)-6,7,8,9-tetrahydro-3H-pyrazolo[4,3-f]isoquinolin-6-yl)pyridin-2-yl)-2-azaspiro[3.5]nonan-7-yl)methyl)-1-oxo-1,3,5,5a,6,7,8,9-octahydro-2H-pyrazino[1′,2′:4,5][1,4]oxazino[2,3-e]isoindol-2-yl)piperidine-2,6-dione]	1 to 10	50 to 75	50 to 75	1 to 10	50 to 500	
